Earlier results, collected in US12036203B2, “Methods of treating or reducing the risk of cardiovascular events and related diseases using SGLT-2 inhibitors” (Merck Sharp & Dohme LLC, priority 2016, dated 2024).

Conditions: type 2 diabetes at high cardiovascular risk

OC[C@H]1O[C@@H](c2ccc(Cl)c(Cc3ccc(O[C@H]4CCOC4)cc3)c2)[C@H](O)[C@@H](O)[C@@H]1O [empagliflozin]
rate of hospitalization for heart failure (in addition to standard of care, placebo group 4.1%): 2.7%
rate of death from cardiovascular causes (in addition to standard of care, placebo group 5.9%): 3.7%
rate of death from any cause (in addition to standard of care, placebo group 8.3%): 5.7%
rates of myocardial infarction or stroke (vs. placebo): no significant between-group differences
relative risk reduction, death from any cause (vs. placebo): 32%
relative risk reduction, death from cardiovascular causes (vs. placebo): 38%
relative risk reduction, hospitalization for heart failure (vs. placebo): 35%
